molecular target: T1, MAGL (Homo sapiens, UniProt Q99685); experiment: MAGL inhibition, 2-AG assay (hydrolysis of 2-arachidonoylglycerol, arachidonic acid by mass spectrometry); format: biochemical; conditions: 2-AG assay (footnote [b])
T1 sequence (Q99685 1-303): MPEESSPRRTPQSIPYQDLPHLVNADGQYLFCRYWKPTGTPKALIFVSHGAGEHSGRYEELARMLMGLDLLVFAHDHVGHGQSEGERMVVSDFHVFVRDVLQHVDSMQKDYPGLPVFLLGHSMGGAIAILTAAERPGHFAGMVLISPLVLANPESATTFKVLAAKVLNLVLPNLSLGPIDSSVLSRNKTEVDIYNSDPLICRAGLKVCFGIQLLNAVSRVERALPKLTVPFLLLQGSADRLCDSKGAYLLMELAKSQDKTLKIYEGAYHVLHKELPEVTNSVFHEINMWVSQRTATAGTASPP
Procedure: Alternatively, compounds were profiled for MAGL inhibitory activity by determining the enzymatic activity by following the hydrolysis of the natural substrate 2-arachidonoylglycerol (2-AG) resulting in arachidonic acid, which can be followed by mass spectrometry. This assay is hereinafter abbreviated “2-AG assay”.
The 2-AG assay was carried out in 384 well assay plates (PP, Greiner Cat #784201) in a total volume of 20 μL. Compound dilutions were made in 100% DMSO (VWR Chemicals 23500.297) in a polypropylene plate in 3-fold dilution steps to give a final concentration range in the assay from 12.5 μM to […]. 0.25 μL compound dilutions (100% DMSO) were added to 9 μL MAGL in assay buffer (50 mM TRIS (GIBCO, 15567-027), 1 mM EDTA (Fluka, 03690-100 mL), 0.01% (v/v) Tween. After shaking, the plate was incubated for 15 min at RT. To start the reaction, 10 μL 2-arachidonoylglycerol in assay buffer was added. The final concentrations in the assay was […] and 8 μM 2-arachidonoylglyerol. After shaking and 30 min incubation at RT, the reaction was quenched by the addition of 40 μL of ACN containing 4 μM of d8-arachidonic acid. The amount of arachidonic acid was traced by an online SPE system (Agilent Rapidfire) coupled to a triple quadrupole mass spectrometer (Agilent 6460). A C18 SPE cartridge (G9205A) was used in an ACN/water liquid setup. The mass spectrometer was operated in negative electrospray mode following the mass transitions 303.1→259.1 for arachidonic acid and 311.1→267.0 for d8-arachidonic acid. The activity of the compounds was calculated based on the ratio of intensities [arachidonic acid/d8-arachidonic acid].

Structure (SMILES)	IC50
O=C1CO[C@H]2CCN(C(=O)N3CC(c4ccc(N5CC6CC(C6)C5)cc4)C3)C[C@H]2N1 [Example 230, (4aR,8aS)-6-[3-[4-(3-Azabicyclo[3.1.1]heptan-3-yl)phenyl]azetidine-1-carbonyl]-4,4a,5,7,8,8a-hexahydropyrido[4,3-b][1,4]oxazin-3-one]	0.2 nM
O=C1CO[C@H]2CCN(C(=O)N3CCC(c4cc(Cl)cc(OCC(F)(F)F)c4)C3)C[C@H]2N1 (single isomer, unassigned) [Example 238, (4aR,8aS)-6-((R or S)-3-(3-Chloro-5-(2,2,2-trifluoroethoxy)phenyl)pyrrolidine-1-carbonyl)hexahydro-2H-pyrido[4,3-b][1,4]oxazin-3(4H)-one]	156 nM
O=C1CO[C@H]2CCN(C(=O)N3CCC(c4cccc(Br)c4)C3)C[C@H]2N1 (single isomer, unassigned) [Example 229, (4aR,8aS)-6-[(3R or S)-3-(3-Bromophenyl)pyrrolidine-1-carbonyl]-4,4a,5,7,8,8a-hexahydropyrido[4,3-b][1,4]oxazin-3-one]	229 nM
COC1CN(c2ccc(C3CN(C(=O)N4CC[C@@H]5OCC(=O)N[C@@H]5C4)C3)cc2)C1 [Example 128, (4aR,8aS)-6-(3-(4-(3-Methoxyazetidin-1-yl)phenyl)azetidine-1-carbonyl)hexahydro-2H-pyrido[4,3-b][1,4]oxazin-3(4H)-one]	45 nM
Cn1ncc2ccc(C3CN(C(=O)N4CC[C@@H]5OCC(=O)N[C@@H]5C4)C3)cc21 [Example 220, (4aR,8aS)-6-(3-(1-Methyl-1H-indazol-6-yl)azetidine-1-carbonyl)hexahydro-2H-pyrido[4,3-b][1,4]oxazin-3(4H)-one]	413 nM
O=C1CO[C@H]2CCN(C(=O)N3CC(c4ccc(-c5ccccc5)cc4)C3)C[C@H]2N1 [Example 141, (4aR,8aS)-6-[3-(4-Phenylphenyl)azetidine-1-carbonyl]-4,4a,5,7,8,8a-hexahydropyrido[4,3-b][1,4]oxazin-3-one]	2 nM
O=C1CO[C@H]2CCN(C(=O)N3CC(c4ccc(N5CC(C(F)(F)F)C5)cc4)C3)C[C@H]2N1 [Example 129, (4aR,8aS)-6-(3-(4-(3-(Trifluoromethyl)azetidin-1-yl)phenyl)azetidine-1-carbonyl)hexahydro-2H-pyrido[4,3-b][1,4]oxazin-3(4H)-one]	2 nM
O=C1CO[C@H]2CCN(C(=O)N3CC(c4ccc(N5CC(OCC6CC6)C5)cc4)C3)C[C@H]2N1 [Example 212, (4aR,8aS)-6-[3-[4-[3-(Cyclopropylmethoxy)azetidin-1-yl]phenyl]azetidine-1-carbonyl]-4,4a,5,7,8,8a-hexahydropyrido[4,3-b][1,4]oxazin-3-one]	3 nM
O=C1CO[C@H]2CCN(C(=O)N3CC(C(OCC(F)(F)F)c4ccc(F)cc4)C3)C[C@H]2N1 (single isomer, unassigned) [Example 106, (4aR,8aS)-6-[3-(R or S)-[(4-Fluorophenyl)-(2,2,2-trifluoroethoxy)methyl]azetidine-1-carbonyl]-4,4a,5,7,8,8a-hexahydropyrido[4,3-b][1,4]oxazin-3-one]	318 nM
COc1cccc(C(c2ccc(F)cc2)C2CCN(C(=O)N3CC[C@@H]4OCC(=O)N[C@@H]4C3)CC2)c1 (single isomer, unassigned) [Example 63, (4aR,8aS)-6-(4-((R or S)-(4-Fluorophenyl)(3-methoxyphenyl)methyl)piperidine-1-carbonyl)hexahydro-2H-pyrido[4,3-b][1,4]oxazin-3(4H)-one]	0.3 nM
N#Cc1cc(C2CN(C(=O)N3CC[C@@H]4OCC(=O)N[C@@H]4C3)C2)ccc1OC(F)(F)F [Example 213, 5-(1-((4aR,8aS)-3-Oxooctahydro-2H-pyrido[4,3-b][1,4]oxazine-6-carbonyl)azetidin-3-yl)-2-(trifluoromethoxy)benzonitrile]	114 nM
O=C1CO[C@H]2CCN(C(=O)N3CCC(c4cccc(Br)c4)C3)C[C@H]2N1 (stereo partly drawn) [Example 164, (4aR,8aS)-6-(3-(3-Bromophenyl)pyrrolidine-1-carbonyl)hexahydro-2H-pyrido[4,3-b][1,4]oxazin-3(4H)-one]	82 nM
O=C1CO[C@H]2CCN(C(=O)N3CC(c4ccc(OC(F)(F)F)cc4)C3)C[C@H]2N1 [Example 120, (4aR,8aS)-6-[3-[4-(Trifluoromethoxy)phenyl]azetidine-1-carbonyl]-4,4a,5,7,8,8a-hexahydropyrido[4,3-b][1,4]oxazin-3-one]	7 nM
CC(OC1CN(C(=O)N2CC[C@@H]3OCC(=O)N[C@@H]3C2)C1)c1ccc(F)cc1Cl (single isomer, unassigned) [Example 116, (4aR,8aS)-6-[3-(S or R)-]1-(2-Chloro-4-fluoro-phenyl)ethoxy]azetidine-1-carbonyl]-4,4a,5,7,8,8a-hexahydropyrido[4,3-b][1,4]oxazin-3-one]	92 nM
Cc1noc(CC(c2ccc(F)cc2)C2CCN(C(=O)N3CC[C@@H]4OCC(=O)N[C@@H]4C3)CC2)n1 (single isomer, unassigned) [Example 59, (4aR,8aS)-6-(4-((R or S)-1-(4-Fluorophenyl)-2-(3-methyl-1,2,4-oxadiazol-5-yl)ethyl)piperidine-1-carbonyl)hexahydro-2H-pyrido[4,3-b][1,4]oxazin-3(4H)-one]	60 nM
O=C1CO[C@H]2CCN(C(=O)N3CCC(C(Oc4ccc(F)cc4Cl)C(F)(F)F)CC3)C[C@H]2N1 (stereo partly drawn) [Example 81, (4aR,8aS)-6-(4-(1-(2-Chloro-4-fluorophenoxy)-2,2,2-trifluoroethyl)piperidine-1-carbonyl)hexahydro-2H-pyrido[4,3-b][1,4]oxazin-3(4H)-one]	3 nM
CS(=O)(=O)c1cccc(C(c2ccccn2)C2CCN(C(=O)N3CC[C@@H]4OCC(=O)N[C@@H]4C3)CC2)c1 (single isomer, unassigned) [Example 189, (4aR,8aS)-6-[4-[(R or S)-(3-methylsulfonylphenyl)-(2-pyridyl)methyl]piperidine-1-carbonyl]-4,4a,5,7,8,8a-hexahydropyrido[4,3-b][1,4]oxazin-3-one]	68 nM
CC1(C)CCN(c2ccc(C3CN(C(=O)N4CC[C@@H]5OCC(=O)N[C@@H]5C4)C3)cc2)C1 [Example 152, (4aR,8aS)-6-(3-(4-(3,3-Dimethylpyrrolidin-1-yl)phenyl)azetidine-1-carbonyl)hexahydro-2H-pyrido[4,3-b][1,4]oxazin-3(4H)-one]	0.4 nM
O=C1CO[C@H]2CCN(C(=O)N3CC(c4ccc(Br)cc4)C3)C[C@H]2N1 [Example 110, (4aR,8aS)-6-[3-(4-bromophenyl)azetidine-1-carbonyl]-4,4a,5,7,8,8a-hexahydropyrido[4,3-b][1,4]oxazin-3-one]	29 nM
CC(c1ccc(C(F)(F)F)cc1)C1CCN(C(=O)N2CC[C@@H]3OCC(=O)N[C@@H]3C2)CC1 (single isomer, unassigned) [Example 46, (4aR,8aS)-6-(4-((R or S)-1-(4-(Trifluoromethyl)phenyl)ethyl)piperidine-1-carbonyl)hexahydro-2H-pyrido[4,3-b][1,4]oxazin-3(4H)-one]	3 nM
O=C1CO[C@H]2CCN(C(=O)N3CC(c4ccc(N5CCC(C(F)(F)F)C5)cc4)C3)C[C@H]2N1 (stereo partly drawn) [Example 163, (4aR,8aS)-6-(3-(4-(3-(Trifluoromethyl)pyrrolidin-1-yl)phenyl)azetidine-1-carbonyl)hexahydro-2H-pyrido[4,3-b][1,4]oxazin-3(4H)-one]	0.7 nM
O=C1CO[C@H]2CCN(C(=O)N3CC(c4ccc(N5CCC(C(F)(F)F)C5)cn4)C3)C[C@H]2N1 (single isomer, unassigned) [Example 271, (4aR,8aS)-6-(3-(5-((R or S)-3-(Trifluoromethyl)pyrrolidin-1-yl)pyridin-2-yl)azetidine-1-carbonyl)hexahydro-2H-pyrido[4,3-b][1,4]oxazin-3(4H)-one]	22 nM
O=C1CO[C@H]2CCN(C(=O)N3CC(F)(c4ccc(Br)cc4)C3)C[C@H]2N1 [Example 122, (4aR,8aS)-6-(3-(4-Bromophenyl)-3-fluoroazetidine-1-carbonyl)hexahydro-2H-pyrido[4,3-b][1,4]oxazin-3(4H)-one]	90 nM
O=C1CO[C@H]2CCN(C(=O)N3CCC(c4cc(Cl)cc(OCC(F)(F)F)c4)C3)C[C@H]2N1 (single isomer, unassigned) [Example 239, (4aR,8aS)-6-((S or R)-3-(3-Chloro-5-(2,2,2-trifluoroethoxy)phenyl)pyrrolidine-1-carbonyl)hexahydro-2H-pyrido[4,3-b][1,4]oxazin-3(4H)-one]	39 nM

Reference: patent US20230117324A1, “OXAZINE MONOACYLGLYCEROL LIPASE (MAGL) INHIBITORS” (Hoffmann-La Roche Inc., priority 2018, published 2023)
